tested on: osteoclast proton pump; conditions: avian osteoclast membrane vesicles; literature background; cited from earlier work

Structure (SMILES)	inhibition of proton transport
CO/C1=C\C(C)=C\[C@@H](C)[C@@H](O)[C@@H](C)C/C(C)=C/C=C/[C@H](OC)[C@@H]([C@@H](C)[C@@H](O)[C@H](C)[C@@]2(O)C[C@@H](O)[C@H](C)[C@@H](C(C)C)O2)OC1=O [bafilomycin A1]	inhibited
CCN1C(=O)C=CC1=O [N-ethylmaleimide (NEM), N-ethylmaleimide]	inhibited
C[C@@H]1O[C@@H](O[C@H]2C[C@@H](O)[C@]3(CO)[C@H]4[C@H](O)C[C@]5(C)[C@@H](C6=CC(=O)OC6)CC[C@]5(O)[C@@H]4CC[C@]3(O)C2)[C@H](O)[C@H](O)[C@H]1O [ouabain]	not inhibited
[Na+].[Na+].[Na+].[O]=[V]([O-])([O-])[O-] [sodium orthovanadate]	not inhibited
Cc1nc2c(OCc3ccccc3)cccn2c1CC#N [SCH 28080]	not inhibited

tested on: not given; conditions: not given

Structure (SMILES)	melting point
CC1(C)CC(NC(=O)c2ccc(-c3cc4cc(Cl)c(Cl)cc4[nH]3)c(OCc3ccccc3)c2)CC(C)(C)N1 [Example 2, 4-(5,6-Dichloro-1H-indol-2-yl)-3-benzyloxy-N-(2,2,6,6-tetramethylpiperidin-4-yl)-benzamide]	220 °C
CCCOc1cc(C(=O)NC2CC(C)(C)NC(C)(C)C2)ccc1-c1cc2cc(Cl)c(Cl)cc2[nH]1 [Example 4, 4-(5,6-Dichloro-1H-indol-2-yl)-3-propoxy-N-(2,2,6,6-tetramethylpiperidin-4-yl)benzamide]	> 250 °C
CC1(C)CC(NC(=O)c2ccc(-c3cc4cc(Cl)c(Cl)cc4[nH]3)c(O)c2)CC(C)(C)N1 [Example 3, 4-(5,6-Dichloro-1H-indol-2-yl)-3-hydroxy-N-(2,2,6,6-tetramethylpiperidin-4-yl)-benzamide]	> 270 °C

tested on: osteoclast cultures; conditions: literature background; cited from earlier work

Structure (SMILES)	inhibition of bone resorption
CO/C1=C\C(C)=C\[C@@H](C)[C@@H](O)[C@@H](C)C/C(C)=C/C=C/[C@H](OC)[C@@H]([C@@H](C)[C@@H](O)[C@H](C)[C@@]2(O)C[C@@H](O)[C@H](C)[C@@H](C(C)C)O2)OC1=O [bafilomycin A1]	able to inhibit bone resorption
